The subject of the assay is MLKL phosphorylation (pMLKL) in HT29-L23 cells. Put plainly: MLKL Phosphorylation High-Content Assay. The conditions noted are these: necroptosis induced with human TNFα, SMAC mimetic and Z-VAD, 6 h, read-out: LE pMLKL HC IC50. The assay is classed as cell-based. Put shortly:
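HT29-L23 cells incubated 6 h at 37° C before detection of phospho-MLKL by immunostaining with anti-phospho-MLKL antibody (1:1000 in PBS/0.1% BSA, overnight at 4° C). Readout by high-content imaging with compartmental image analysis.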
For the molecule `CC(O)(c1ccc(F)cc1)C(F)CCOc1c(F)ccc(-c2ccn3nc(N)nc3c2)c1F` (single isomer, unassigned) [Example 97, 5-(3-(2-amino-[1,2,4]triazolo[1,5-a]pyridin-7-yl)-2,6-difluorophenoxy)-3-fluoro-2-(4-fluorophenyl)pentan-2-ol], the IC50 is 29 nM.

In the case of `Nc1nc2cc(-c3ccc(Cl)c(OCCC(F)C(O)c4ccc(F)cc4)c3F)ccn2n1` (single isomer, unassigned) [Example 98, 4-(3-(2-amino-[1,2,4]triazolo[1,5-a]pyridin-7-yl)-6-chloro-2-fluorophenoxy)-2-fluoro-1-(4-fluorophenyl)butan-1-ol], the IC50 was found to be 2 nM.

Consider `Nc1nc2cc(-c3ccc(Cl)c(OCCC(F)C(O)c4ccc(F)cc4)c3F)ccn2n1` (single isomer, unassigned) [Example 99, 4-(3-(2-amino-[1,2,4]triazolo[1,5-a]pyridin-7-yl)-6-chloro-2-fluorophenoxy)-2-fluoro-1-(4-fluorophenyl)butan-1-ol], for which the IC50 was 15 nM.

Regarding `Nc1nc2cc(-c3ccc(Cl)c(OCCC(F)C(O)c4ccc(F)cc4)c3F)ccn2n1` (single isomer, unassigned) [Example 100, 4-(3-(2-amino-[1,2,4]triazolo[1,5-a]pyridin-7-yl)-6-chloro-2-fluorophenoxy)-2-fluoro-1-(4-fluorophenyl)butan-1-ol], the IC50 came to 6 nM.

On to `Nc1nc2cc(-c3ccc(Cl)c(OCCC(F)C(O)c4ccc(F)cc4)c3F)ccn2n1` (single isomer, unassigned) [Example 101, 4-(3-(2-amino-[1,2,4]triazolo[1,5-a]pyridin-7-yl)-6-chloro-2-fluorophenoxy)-2-fluoro-1-(4-fluorophenyl)butan-1-ol], for which the IC50 worked out at 30 nM.

For the molecule `Nc1nc2cc(-c3ccc(F)c(OCCC(F)C(O)c4ccc(F)cc4)c3F)ccn2n1` (single isomer, unassigned) [Example 102, 4-(3-(2-amino-[1,2,4]triazolo[1,5-a]pyridin-7-yl)-2,6-difluorophenoxy)-2-fluoro-1-(4-fluorophenyl)butan-1-ol], the concentration for half-maximal inhibition (IC50) was determined as 3 nM.

Regarding `Nc1nc2cc(-c3ccc(F)c(OCCC(F)C(O)c4ccc(F)cc4)c3F)ccn2n1` (single isomer, unassigned) [Example 103, 4-(3-(2-amino-[1,2,4]triazolo-[1,5-a]pyridin-7-yl)-2,6-difluorophenoxy)-2-fluoro-1-(4-fluorophenyl)butan-1-ol], the IC50 turned out to be 1.5 nM.

For the molecule `Nc1nc2cc(-c3ccc(F)c(OCCC(F)C(O)c4ccc(F)cc4)c3F)ccn2n1` (single isomer, unassigned) [Example 104, 4-(3-(2-amino-[1,2,4]triazolo-[1,5-a]pyridin-7-yl)-2,6-difluorophenoxy)-2-fluoro-1-(4-fluorophenyl)butan-1-ol], the IC50 came to 2.8 nM.

As for `Nc1nc2cc(-c3ccc(F)c(OCCC(F)C(O)c4ccc(F)cc4)c3F)ccn2n1` (single isomer, unassigned) [Example 105, 4-(3-(2-amino-[1,2,4]triazolo-[1,5-a]pyridin-7-yl)-2,6-difluorophenoxy)-2-fluoro-1-(4-fluorophenyl)butan-1-ol], the IC50 turned out to be 12 nM.

Turning to `Cc1ccc(-c2ccn3nc(N)nc3c2)c(F)c1OCCC(F)C(O)c1ccc(F)cc1` (single isomer, unassigned) [Example 106, 4-(3-(2-amino-[1,2,4]triazolo[1,5-a]pyridin-7-yl)-2-fluoro-6-methylphenoxy)-2-fluoro-1-(4-fluorophenyl)butan-1-ol], the IC50 was determined as 3 nM.

In the case of `Cc1ccc(-c2ccn3nc(N)nc3c2)c(F)c1OCCC(F)C(O)c1ccc(F)cc1` (single isomer, unassigned) [Example 107, 4-(3-(2-amino-[1,2,4]triazolo[1,5-a]pyridin-7-yl)-2-fluoro-6-methylphenoxy)-2-fluoro-1-(4-fluorophenyl)butan-1-ol], the IC50 came to 1.2 nM.

On to `Cc1ccc(-c2ccn3nc(N)nc3c2)c(F)c1OCCC(F)C(O)c1ccc(F)cc1` (single isomer, unassigned) [Example 108, 4-(3-(2-amino-[1,2,4]triazolo[1,5-a]pyridin-7-yl)-2-fluoro-6-methylphenoxy)-2-fluoro-1-(4-fluorophenyl)butan-1-ol], for which the 50% inhibitory concentration (IC50) was found to be 2.4 nM.

Regarding `Cc1ccc(-c2ccn3nc(N)nc3c2)c(F)c1OCCC(F)C(O)c1ccc(F)cc1` (single isomer, unassigned) [Example 109, 4-(3-(2-amino-[1,2,4]triazolo[1,5-a]pyridin-7-yl)-2-fluoro-6-methylphenoxy)-2-fluoro-1-(4-fluorophenyl)butan-1-ol], the IC50 came to 0.1 nM.

As to `Nc1nc2cc(-c3ccc(C(F)(F)F)c(OCCC(F)C(O)c4ccc(F)cc4)c3F)ccn2n1` (single isomer, unassigned) [Example 110, 4-(3-(2-amino-[1,2,4]triazolo[1,5-a]pyridin-7-yl)-2-fluoro-6-(trifluoromethyl)phenoxy)-2-fluoro-1-(4-fluorophenyl)butan-1-ol], the IC50 came to 360 nM.

Regarding `Nc1nc2cc(-c3ccc(C(F)(F)F)c(OCCC(F)C(O)c4ccc(F)cc4)c3F)ccn2n1` (single isomer, unassigned) [Example 111, 4-(3-(2-amino-[1,2,4]triazolo[1,5-a]pyridin-7-yl)-2-fluoro-6-(trifluoromethyl)phenoxy)-2-fluoro-1-(4-fluorophenyl)butan-1-ol], the IC50 is 29 nM.

For `Nc1nc2cc(-c3ccc(C(F)(F)F)c(OCCC(F)C(O)c4ccc(F)cc4)c3F)ccn2n1` (single isomer, unassigned) [Example 112, 4-(3-(2-amino-[1,2,4]triazolo[1,5-a]pyridin-7-yl)-2-fluoro-6-(trifluoromethyl)phenoxy)-2-fluoro-1-(4-fluorophenyl)butan-1-ol], the IC50 is 730 nM.

With `Nc1nc2cc(-c3ccc(C(F)(F)F)c(OCCC(F)C(O)c4ccc(F)cc4)c3F)ccn2n1` (single isomer, unassigned) [Example 113, 4-(3-(2-amino-[1,2,4]triazolo[1,5-a]pyridin-7-yl)-2-fluoro-6-(trifluoromethyl)phenoxy)-2-fluoro-1-(4-fluorophenyl)butan-1-ol], the IC50 turned out to be 220 nM.

Consider `Cc1ccc(-c2ccn3nc(N)nc3c2)c(F)c1OCCC(F)C(C)(O)c1ccc(F)cc1` (single isomer, unassigned) [Example 114, 5-(3-(2-amino-[1,2,4]triazolo[1,5-a]pyridin-7-yl)-2-fluoro-6-methylphenoxy)-3-fluoro-2-(4-fluorophenyl)pentan-2-ol], for which the 50% inhibitory concentration (IC50) was 0.1 nM.

As for `Cc1ccc(-c2ccn3nc(N)nc3c2)c(F)c1OCCC(F)C(C)(O)c1ccc(F)cc1` (single isomer, unassigned) [Example 115, 5-(3-(2-amino-[1,2,4]triazolo[1,5-a]pyridin-7-yl)-2-fluoro-6-methylphenoxy)-3-fluoro-2-(4-fluorophenyl)pentan-2-ol], the IC50 was 2.6 nM.

On to `Nc1nc2cc(-c3cc(F)c(F)c(OCCC(F)C(O)c4ccc(F)cc4)c3)ccn2n1` (single isomer, unassigned) [Example 116, 4-(5-(2-amino-[1,2,4]triazolo[1,5-a]pyridin-7-yl)-2,3-difluorophenoxy)-2-fluoro-1-(4-fluorophenyl)butan-1-ol], for which the IC50 is 55 nM.

The values above are taken from patent US20260217711A1, “TRIAZOLOPYRIDINYL ETHER LINKED COMPOUNDS AS KINASE INHIBITORS” (Bristol-Myers Squibb Company, priority 2023, published 2026).
